The test deals with T1, glucocorticoid receptor (Homo sapiens, UniProt P04150).
T1 construct: host or cells: A549 human lung epithelial cells (sonicated cell extract)
T1 sequence (P04150 1-777): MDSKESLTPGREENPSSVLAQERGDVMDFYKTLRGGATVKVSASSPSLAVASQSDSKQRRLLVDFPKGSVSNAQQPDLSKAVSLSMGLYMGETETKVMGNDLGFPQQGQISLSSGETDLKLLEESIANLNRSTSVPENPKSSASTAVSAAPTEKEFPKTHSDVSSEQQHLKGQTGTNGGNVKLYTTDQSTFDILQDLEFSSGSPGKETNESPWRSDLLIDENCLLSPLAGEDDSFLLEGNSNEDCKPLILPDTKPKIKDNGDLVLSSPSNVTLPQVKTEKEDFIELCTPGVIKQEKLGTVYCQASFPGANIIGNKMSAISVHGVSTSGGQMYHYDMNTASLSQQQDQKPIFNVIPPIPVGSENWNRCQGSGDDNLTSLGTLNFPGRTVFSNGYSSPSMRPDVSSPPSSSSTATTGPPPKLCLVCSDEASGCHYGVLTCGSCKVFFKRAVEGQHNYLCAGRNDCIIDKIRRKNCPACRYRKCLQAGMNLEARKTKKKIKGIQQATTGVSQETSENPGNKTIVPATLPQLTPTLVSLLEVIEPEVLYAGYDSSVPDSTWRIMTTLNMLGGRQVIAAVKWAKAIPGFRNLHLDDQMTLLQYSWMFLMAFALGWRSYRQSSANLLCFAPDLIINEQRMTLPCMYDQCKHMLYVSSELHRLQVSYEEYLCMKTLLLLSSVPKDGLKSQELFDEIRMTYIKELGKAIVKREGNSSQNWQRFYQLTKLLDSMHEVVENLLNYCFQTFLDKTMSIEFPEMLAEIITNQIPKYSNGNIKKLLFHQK
Nature of the test: Glucocorticoid Receptor Binding Assay ([3H]-dexamethasone displacement, A549 cell extract). To be noted: A549 human lung epithelial cell extract, 1.86 nM [3H]-dexamethasone; read-out: GR Ki. In a few lines:
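A549 cell extract (50-200 ug; buffer 50 mM Tris-HCl pH 7.2 with glycerol, NaCl, MgCl2, EDTA, 10 mM molybdate) incubated with 1.86 nM [3H]-dexamethasone and test compound, 16 h at 4 °C. Unbound ligand removed with dextran-coated charcoal; bound radioactivity counted. IC50 converted to Ki via Cheng-Prusoff.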

The structures appear in SMILES notation. Bounds are passed on as bounds.

In the case of `COc1cccc(C(=O)CN2C(=O)C(c3cc(C)c(O)c(C)c3)(c3cc(C)c(O)c(C)c3)c3ccccc32)c1` [Example 45, 3,3-Bis-(4-hydroxy-3,5-dimethyl-phenyl)-1-[2-(3-methoxy-phenyl)-2-oxo-ethyl]-1,3-dihydro-indol-2-one], the Ki (in general, the dissociation constant of the complex between target and ligand, obtained from inhibition or displacement) was at most 500 nM.

These data come from US7250442B2, “Dihydroindol-2-one derivatives as steroid hormone nuclear receptor modulators” (Eli Lilly and Company, priority 2003, dated 2007).
